Laboratory results published in article PMC2868945 (Bioorganic & medicinal chemistry, 2010).
Values joined by “and” are separate entries in the source; they are usually repeats but may differ in a detail not shown here. Identical values can stand only once. “Also recorded” adds a separate entry of the source.

Columns and labels:
[1] = target: recombinant riboflavin synthase of M. tuberculosis (Mycobacterium tuberculosis, UniProt P9WK35); assay: Kinetic assay of riboflavin synthase inhibitors; format: biochemical; conditions: for inhibitory activity against riboflavin synthase (in words): M. tuberculosis RS; for Kis (inhibitor dissociation constant for ES + I ⇌ ESI): pH 7.0, 27 °C; for Mechanism: most likely inhibition model (DynaFit)
Chain of recombinant riboflavin synthase of M. tuberculosis (P9WK35 whole entry): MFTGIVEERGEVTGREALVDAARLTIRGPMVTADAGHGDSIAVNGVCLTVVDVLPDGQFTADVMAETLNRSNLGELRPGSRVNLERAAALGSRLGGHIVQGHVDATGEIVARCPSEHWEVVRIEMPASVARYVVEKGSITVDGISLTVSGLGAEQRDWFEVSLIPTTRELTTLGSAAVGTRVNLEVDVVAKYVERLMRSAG

[2] = target: recombinant lumazine synthase of M. tuberculosis (Mycobacterium tuberculosis, UniProt P9WHE9); assay: Kinetic assay of lumazine synthase inhibitors; format: biochemical; conditions: for inhibitory activity against lumazine synthase (in words): M. tuberculosis LS; for Kcat (rate constant for ES ⇌ E + P) / Mechanism / Kis (inhibitor dissociation constant for ES + I ⇌ ESI): LS; for Kcat (rate constant for ES ⇌ E + P): fit parameter of the inhibitor's data set; for Mechanism: most likely inhibition model (DynaFit); for Kis (inhibitor dissociation constant for ES + I ⇌ ESI): pH 7.0, 27 °C, pyrimidinedione substrate varied
Chain of recombinant lumazine synthase of M. tuberculosis (P9WHE9 whole entry): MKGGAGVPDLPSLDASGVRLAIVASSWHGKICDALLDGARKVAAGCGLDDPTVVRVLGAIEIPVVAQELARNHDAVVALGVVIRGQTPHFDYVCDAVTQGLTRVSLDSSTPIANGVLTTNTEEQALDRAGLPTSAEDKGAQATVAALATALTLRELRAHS

[3] = target: T1, M. tuberculosis lumazine synthase (Mycobacterium tuberculosis, UniProt P9WHE9); conditions: cited from earlier work
T1 sequence (P9WHE9 whole entry): as above

[4] = target: T1, M. tuberculosis lumazine synthase; assay: biochemical; format: binding; conditions: for binding enthalpy ΔH: 100 mM potassium phosphate buffer, pH 7.0, 30 °C, apparent; for entropy ΔS of binding: calculated from ΔG = ΔH − TΔS
[5] = target: pentameric lumazine synthase from Schizosaccharomyces pombe (Schizosaccharomyces pombe, UniProt Q9UUB1); format: binding; conditions: same experimental limits as for the M. tuberculosis enzyme
Chain of pentameric lumazine synthase from Schizosaccharomyces pombe (Q9UUB1 whole entry): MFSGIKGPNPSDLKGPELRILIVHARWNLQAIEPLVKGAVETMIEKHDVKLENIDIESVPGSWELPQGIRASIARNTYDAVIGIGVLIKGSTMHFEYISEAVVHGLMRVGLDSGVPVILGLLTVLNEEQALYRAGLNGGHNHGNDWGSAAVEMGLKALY

[6] = target: icosahedral lumazine synthase from Bacillus anthracis (Bacillus anthracis, UniProt Q81MB5); format: binding
Chain of icosahedral lumazine synthase from Bacillus anthracis (Q81MB5 whole entry, looked up): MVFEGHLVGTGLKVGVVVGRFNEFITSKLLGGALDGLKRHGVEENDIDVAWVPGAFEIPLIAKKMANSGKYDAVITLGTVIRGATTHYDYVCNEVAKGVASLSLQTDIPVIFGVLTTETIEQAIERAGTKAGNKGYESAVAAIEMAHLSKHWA

[7] = RS, fit parameter of the inhibitor's data set

1,1-Difluoro-4-(2-oxo-1,2-dihydrobenzo[cd]indole-6-sulfonamido)butylphosphonic Acid [Compound 71]
inhibitory activity against riboflavin synthase (in words) [1]: inactive | inhibitory activity against lumazine synthase (in words) [2]: inactive

1,1-Difluoro-4-(2-oxo-1,2-dihydrobenzo[cd]indole-6-sulfonamido)hexylphosphonic Acid [Compound 73]
inhibitory activity against riboflavin synthase (in words) [1]: inactive | inhibitory activity against lumazine synthase (in words) [2]: inactive

1,1-Difluoro-4-(2-oxo-1,2-dihydrobenzo[cd]indole-6-sulfonamido)pentylphosphonic Acid [Compound 72]
inhibitory activity against riboflavin synthase (in words) [1]: inactive | Ks (substrate dissociation constant for E + S ⇌ ES) [1, 7]: 4.1 ± 0.3 µM | Kis (inhibitor dissociation constant for ES + I ⇌ ESI) ([1]; RS): > 1000 µM | Kcat (rate constant for ES ⇌ E + P) [2]: 0.57 ± 0.01 m^−1 | Mechanism [2]: Mixed | Kis (inhibitor dissociation constant for ES + I ⇌ ESI) [2]: 518 µM and 518 ± 94 µM | inhibitory activity against lumazine synthase (in words) [2]: poor inhibitory activity

4-(2-Oxo-1,2-dihydrobenzo[cd]indole-6-sulfonamido)pentylphosphonic Acid [Compound 55]
inhibitory activity against lumazine synthase (in words) [2]: absolutely no inhibitory activity

5-(2-Oxo-1,2-dihydrobenzo[cd]indole-6-sulfonamido)hexyl Dihydrogen Phosphate [Compound 40]
inhibitory activity against riboflavin synthase (in words) [1]: weak, uncompetitive inhibitors | Kcat (rate constant for ES ⇌ E + P) [1, 7]: 0.56 ± 0.01 m^−1 | Ks (substrate dissociation constant for E + S ⇌ ES) [1, 7]: 9.8 ± 0.6 µM | Mechanism ([1]; RS): Uncompetitive | Kis (inhibitor dissociation constant for ES + I ⇌ ESI) ([1]; RS): 898 ± 187 µM | Kcat (rate constant for ES ⇌ E + P) [2]: 0.45 ± 0.01 m^−1 | Mechanism [2]: Uncompetitive | Kis (inhibitor dissociation constant for ES + I ⇌ ESI) [2]: 723 ± 91 µM

O=C(O)CNS(=O)(=O)c1ccc2c3c(cccc13)C(=O)N2 [Compound 9, 2-(2-oxo-1,2-dihydrobenzo[cd]indole-6-sulfonamido)acetic acid]
Kis (inhibitor dissociation constant for ES + I ⇌ ESI) [2]: 58 µM | inhibitory activity against lumazine synthase (in words) [2]: demonstrated inhibition

O=c1[nH]c(Cl)c(CCCCOP(=O)(O)O)c(=O)[nH]1 [Compound 11, 4-(6-chloro-2,4-dioxo-1,2,3,4-tetrahydropyrimidin-5-yl)butyl dihydrogen phosphate]
Ki ([3]; M. tuberculosis lumazine synthase): 0.88 µM | inhibition constant (in words) ([3]; lumazine synthase): nanomolar range

O=C1Nc2ccc(S(=O)(=O)NCCOP(=O)(O)O)c3cccc1c23 [Compound 26, 2-(2-Oxo-1,2-dihydrobenzo[cd]indole-6-sulfonamido)ethyl Dihydrogen Phosphate]
Ks (substrate dissociation constant for E + S ⇌ ES) [1, 7]: 5.7 ± 0.04 µM | Kis (inhibitor dissociation constant for ES + I ⇌ ESI) ([1]; RS): > 1000 µM | Kcat (rate constant for ES ⇌ E + P) [2]: 0.41 ± 0.01 m^−1 | Mechanism [2]: Partial | Kis (inhibitor dissociation constant for ES + I ⇌ ESI) [2]: 125 ± 57 µM

O=C1Nc2ccc(S(=O)(=O)NCCCOP(=O)(O)O)c3cccc1c23 [Compound 27, 3-(2-Oxo-1,2-dihydrobenzo[cd]indole-6-sulfonamido)propyl Dihydrogen Phosphate]
Ks (substrate dissociation constant for E + S ⇌ ES) [1, 7]: 5.6 ± 0.04 µM | Kis (inhibitor dissociation constant for ES + I ⇌ ESI) ([1]; RS): > 1000 µM | Kcat (rate constant for ES ⇌ E + P) [2]: 0.45 ± 0.01 m^−1 | Mechanism [2]: Mixed | Kis (inhibitor dissociation constant for ES + I ⇌ ESI) [2]: 434 ± 115 µM | Kd [4]: 112 µM | binding enthalpy ΔH ([4]; ITC): -5.2 ± 0.7 kcal/mol | entropy ΔS of binding ([4]; ITC, 30 °C): 0.98 cal·mol^−1·deg^−1

O=C1Nc2ccc(S(=O)(=O)NCCO)c3cccc1c23 [Compound 31, N-(2-Hydroxyethyl)-2-oxo-1,2-dihydrobenzo[cd]indole-6-sulfonamide]
inhibitory activity against lumazine synthase (in words) [2]: totally inactive

CCC(O)CNS(=O)(=O)c1ccc2c3c(cccc13)C(=O)N2 (stereo not drawn) [Compound 32, N-(2-Hydroxybutyl)-2-oxo-1,2-dihydrobenzo[cd]indole-6-sulfonamide]
inhibitory activity against lumazine synthase (in words) [2]: totally inactive

O=C1Nc2ccc(S(=O)(=O)NCCCCCO)c3cccc1c23 [Compound 33, N-(5-Hydroxypentyl)-2-oxo-1,2-dihydrobenzo[cd]indole-6-sulfonamide]
inhibitory activity against lumazine synthase (in words) [2]: totally inactive

O=C1Nc2ccc(S(=O)(=O)NCCCCOP(=O)(O)O)c3cccc1c23 [Compound 38, 4-(2-Oxo-1,2-dihydrobenzo[cd]indole-6-sulfonamido)butyl Dihydrogen Phosphate]
Ks (substrate dissociation constant for E + S ⇌ ES) [1, 7]: 6.5 ± 0.3 µM | Kis (inhibitor dissociation constant for ES + I ⇌ ESI) ([1]; RS): > 1000 µM | Kcat (rate constant for ES ⇌ E + P) [2]: 0.44 ± 0.01 m^−1 | Mechanism [2]: Mixed | Kis (inhibitor dissociation constant for ES + I ⇌ ESI) [2]: 572 ± 210 µM | binding detected by titration calorimetry (in words) [5]: do not indicate a binding reaction; also recorded: did not detect binding | Kd [4]: 130 µM | binding enthalpy ΔH ([4]; ITC): -7.6 ± 1.3 kcal/mol | entropy ΔS of binding ([4]; ITC, 30 °C): −7.2 cal·mol^−1·deg^−1 | stoichiometry (n) of the binding reaction ([4]; ITC, 30 °C, inhibitor molecules per active site): 1 | binding detected by titration calorimetry (in words) [6]: do not indicate a binding reaction; also recorded: did not detect binding

O=C1Nc2ccc(S(=O)(=O)NCCCCCOP(=O)(O)O)c3cccc1c23 [Compound 39, 5-(2-oxo-1,2-dihydrobenzo[cd]indole-6-sulfonamido)pentyl Dihydrogen Phosphate]
inhibitory activity against riboflavin synthase (in words) [1]: weak, uncompetitive inhibitors | Ks (substrate dissociation constant for E + S ⇌ ES) [1, 7]: 9.8 ± 0.6 µM | Mechanism ([1]; RS): Uncompetitive | Kis (inhibitor dissociation constant for ES + I ⇌ ESI) ([1]; RS): 971 ± 179 µM | Kcat (rate constant for ES ⇌ E + P) [2]: 0.45 ± 0.01 m^−1 | Mechanism [2]: Uncompetitive | Kis (inhibitor dissociation constant for ES + I ⇌ ESI) [2]: 563 ± 56 µM

O=C1Nc2ccc(S(=O)(=O)NCCCCP(=O)(O)O)c3cccc1c23 [Compound 54, 4-(2-Oxo-1,2-dihydrobenzo[cd]indole-6-sulfonamido)butylphosphonic Acid]
inhibitory activity against lumazine synthase (in words) [2]: absolutely no inhibitory activity

CCOC(=O)C(=O)Nc1c(Cl)[nH]c(=O)[nH]c1=O [Compound 77, Ethyl 2-(6-Chloro-2,4,dioxo-1,2,3,4-tetrahydropyrimidin-5-ylamino)-2-oxoethanoate]
inhibitory activity against riboflavin synthase (in words) [1]: weak, uncompetitive inhibitors | Ks (substrate dissociation constant for E + S ⇌ ES) [1, 7]: 7.8 ± 0.3 µM | Mechanism ([1]; RS): Uncompetitive | Kis (inhibitor dissociation constant for ES + I ⇌ ESI) ([1]; RS): 897 ± 104 µM | Kcat (rate constant for ES ⇌ E + P) [2]: 0.61 ± 0.02 m^−1 | Mechanism [2]: Mixed | Kis (inhibitor dissociation constant for ES + I ⇌ ESI) [2]: > 1000 µM
